According to ChEMBL document CHEMBL1130436, “Synthesis and opioid activity of conformationally constrained dynorphin A analogues. 2. Conformational constraint in the "address" sequence” (J Med Chem, 1997):

How the values were obtained:
Mu-type opioid receptor = Mu-type opioid receptor (Cavia porcellus, UniProt P97266); assay: Binding affinity of compound was measured on Opioid receptor mu 1 by competitive inhibition of radioligand [3H]DAMGO using cloned receptors transiently expressed on COS-7 (monkey kidney) cells; assay type: cell-based
Cavia porcellus = species on record: Cavia porcellus; assay: Opioid activity in guinea pig ileum; assay type: functional
[1] = target: Kappa-type opioid receptor (Cavia porcellus, UniProt P41144); assay: Binding affinity of compound was measured on Opioid receptor kappa 1 by competitive inhibition of radioligand [3H]diprenorphine using cloned receptors transiently expressed on COS-7 (monkey kidney) cells; assay type: cell-based
[2] = target: Delta-type opioid receptor (Homo sapiens, UniProt P41143); assay: Binding affinity of compound was measured on Opioid receptor delta 1 by competitive inhibition of radioligand [3H]DPDPE using cloned receptors transiently expressed on COS-7 (monkey kidney) cells; assay type: cell-based

CC[C@H](C)[C@H](NC(=O)[C@H](CCCNC(=N)N)NC(=O)[C@@H]1CCNC(=O)C[C@@H](NC(=O)CNC(=O)[C@@H](N)Cc2ccc(O)cc2)C(=O)N[C@@H](Cc2ccccc2)C(=O)N[C@@H](CC(C)C)C(=O)N1)C(=O)N[C@@H](CCCNC(=N)N)C(=O)N1CCC[C@H]1C(=O)N[C@@H](CCCCN)C(=O)N[C@@H](CC(C)C)C(=O)N[C@@H](CCCCN)C(N)=O
Ki (Mu-type opioid receptor): 210 nM | IC50 (Cavia porcellus): 880 nM | Ki [1]: 270 nM | Ki [2]: 1000 nM
